Laboratory results taken from patent US11319299B2, “Substituted carboxamides as inhibitors of WDR5 protein-protein binding” (PROPELLON THERAPEUTICS INC., priority 2016, dated 2022).

Target: WDR5 (Homo sapiens (Human), UniProt P61964)
Assay: Surface Plasmon Resonance (SPR) assay, KD and residence time
Format: binding
Details: surface plasmon resonance (SPR); read-out: WDR5 binding affinity (KD)

Compound | Kd
C[C@@H]1CN(c2cc(F)c(C3=CCCN(c4ncco4)C3)cc2NC(=O)c2c[nH]c(=O)cc2C(F)(F)F)C[C@H](C)N1C [Example 643, N-[4-fluoro-5-[1-(1,3-oxazol-2-yl)-3,6-dihydro-2H-pyridin-5-yl]-2-[(3R5S)-3,4,5-trimethylpiperazin-1-yl]phenyl]-6-oxo-4-(trifluoromethyl)-H-pyridine-3-carboxamide] | 1.26 nM
C[C@@H]1CN(c2cc(F)c(C3=CCCN(c4ncccn4)C3)cc2NC(=O)c2c[nH]c(=O)cc2C(F)F)C[C@H](C)N1C [Example 644, 4-(difluoromethyl)-N-[4-fluoro-5-(1-pyrimidin-2-yl-3,6-dihydro-2H-pyridin-5-yl)-2-[(3R,5S)-3,4,5-trimethylpiperazin-1-yl]phenyl]-6-oxo-1H-pyridine-3-carboxamide] | 1.32 nM
COc1cnc(N2CCC=C(c3cc(NC(=O)c4c[nH]c(=O)cc4C(F)F)c(N4C[C@@H](C)N(C)[C@@H](C)C4)cc3F)C2)nc1 [Example 645, 4-(difluoromethyl)-N-[4-fluoro-5-[1-(5-methoxypyrimidin-2-yl)-3,6-dihydro-2H-pyridin-5-yl]-2-[(3R,5S)-3,4,5-trimethylpiperazin-1-yl]phenyl]-6-oxo-1H-pyridine-3-carboxamide] | 1.41 nM
C[C@@H]1CN(c2cc(F)c(C3=CCN(c4ncc(C=O)cn4)CC3)cc2NC(=O)c2c[nH]c(=O)cc2C(F)F)C[C@H](C)N1C [Example 646, 4-(difluoromethyl)-N-[4-fluoro-5-[1-(5-formylpyrimidin-2-yl)-3,6-dihydro-2H-pyridin-4-yl]-2-[(3R,5S)-3,4,5-trimethylpiperazin-1-yl]phenyl]-6-oxo-1H-pyridine-3-carboxamide] | 1.41 nM
COc1cc(N2CC=C(c3cc(NC(=O)c4c[nH]c(=O)cc4C(F)F)c(N4C[C@@H](C)N(C)[C@@H](C)C4)cc3F)CC2)ncn1 [Example 647, 4-(difluoromethyl)-N-[4-fluoro-5-[1-(6-methoxypyrimidin-4-yl)-3,6-dihydro-2H-pyridin-4-yl]-2-[(3R,5S)-3,4,5-trimethylpiperazin-1-yl]phenyl]-6-oxo-1H-pyridine-3-carboxamide] | 1.59 nM
CCOC(=O)N1CCC=C(c2cc(NC(=O)c3c[nH]c(=O)cc3C(F)F)c(N3C[C@@H](C)N(C)[C@@H](C)C3)cc2F)C1 [Example 648, Ethyl 5-[5-[[4-(difluoromethyl)-6-oxo-1H-pyridine-3-carbonyl]amino]-2-fluoro-4-[(3R,5S)-3,4,5-trimethylpiperazin-1-yl]phenyl]-3,6-dihydro-2H-pyridine-1-carboxylate] | 1.97 nM
C[C@@H]1CN(c2cc(F)c(C3=CCN(C(=O)OC4(C)CCC4)CC3)cc2NC(=O)c2c[nH]c(=O)cc2C(F)F)C[C@H](C)N1C [Example 651, (1-methylcyclobutyl) 4-[5-[[4-(difluoromethyl)-6-oxo-1H-pyridine-3-carbonyl]amino]-2-fluoro-4-[(3R,5S)-3,4,5-trimethylpiperazin-1-yl]phenyl]-3,6-dihydro-2H-pyridine-1-carboxylate] | 0.897 nM
C[C@@H]1CN(c2cc(F)c(-c3cc(F)c(C(N)=O)c(F)c3)cc2NC(=O)c2ccc(F)cc2C(F)(F)F)C[C@H](C)N1C [Example 656, 2,6-difluoro-4-[2-fluoro-5-[[4-fluoro-2-(trifluoromethyl)benzoyl]amino]-4-[(3R,5S)-3,4,5-trimethylpiperazin-1-yl]phenyl]benzamide] | 5.44 nM
C[C@@H]1CN(c2cc(F)c(-c3cc(F)c(C(N)=O)c(F)c3)cc2NC(=O)c2c[nH]c(=O)cc2C(F)(F)F)C[C@H](C)N1C [Example 658, N-[5-(4-carbamoyl-3,5-difluorophenyl)-4-fluoro-2-[(3R,5S)-3,4,5-trimethylpiperazin-1-yl]phenyl]-6-oxo-4-(trifluoromethyl)-1H-pyridine-3-carboxamide] | 1.88 nM
C[C@@H]1CN(c2cc(F)c(-c3cc(F)c(C(N)=O)c(F)c3)cc2NC(=O)c2c[nH]c(=O)cc2C(F)F)C[C@H](C)N1C [Example 659, N-[5-(4-carbamoyl-3,5-difluorophenyl)-4-fluoro-2-[(3R,5S)-3,4,5-trimethylpiperazin-1-yl]phenyl]-4-(difluoromethyl)-6-oxo-1H-pyridine-3-carboxamide] | 1.93 nM
CC(C)N1CCN(c2ncc(-c3cc(NC(=O)c4cn(C)c(=O)cc4C(F)(F)F)c(N4C[C@@H](C)N(C)[C@@H](C)C4)cc3F)cn2)CC1 [Example 661, N-[4-fluoro-5-[2-(4-propan-2-ylpiperazin-1-yl)pyrimidin-5-yl]-2-[(3R,5S)-3,4,5-trimethylpiperazin-1-yl]phenyl]-1-methyl-6-oxo-4-(trifluoromethyl)pyridine-3-carboxamide] | 3.23 nM
C[C@@H]1CN(c2cc(F)c(-c3cnc(N4CCOC(C)(C)C4)nc3)cc2NC(=O)c2cn(C)c(=O)cc2C(F)(F)F)C[C@H](C)N1C [Example 662, N-[5-[2-(2,2-dimethylmorpholin-4-yl)pyrimidin-5-yl]-4-fluoro-2-[(3R,5S)-3,4,5-trimethylpiperazin-1-yl]phenyl]-1-methyl-6-oxo-4-(trifluoromethyl)pyridine-3-carboxamide] | 2.29 nM
C[C@@H]1CN(c2cc(F)c(-c3ccc(C(=O)NC(C)(C)CC(C)(C)C)c(F)c3F)cc2NC(=O)c2ccc(F)cc2C(F)(F)F)C[C@H](C)N1C [Example 665, 2,3-difluoro-4-[2-fluoro-5-[[4-fluoro-2-(trifluoromethyl)benzoyl]amino]-4-[(3R,5S)-3,4,5-trimethylpiperazin-1-yl]phenyl]-N-(2,4,4-trimethylpentan-2-yl)benzamide] | 151 nM
C[C@@H]1CN(c2cc(F)c(-c3ccc(C(N)=O)c(F)c3F)cc2NC(=O)c2ccc(F)cc2C(F)(F)F)C[C@H](C)N1C [Example 667, 2,3-difluoro-4-[2-fluoro-5-[[4-fluoro-2-(trifluoromethyl)benzoyl]amino]-4-[(3R,5S)-3,4,5-trimethylpiperazin-1-yl]phenyl]benzamide] | 9.65 nM
C[C@@H]1CN(c2cc(F)c(-c3ccc(C(=O)NC(C)(C)CC(C)(C)C)c(F)c3F)cc2NC(=O)c2c[nH]c(=O)cc2C(F)(F)F)C[C@H](C)N1C [Example 669, N-[5-[2,3-difluoro-4-(2,4,4-trimethylpentan-2-ylcarbamoyl)phenyl]-4-fluoro-2-[(3R,5S)-3,4,5-trimethylpiperazin-1-yl]phenyl]-6-oxo-4-(trifluoromethyl)-1H-pyridine-3-carboxamide] | 9.71 nM
C[C@@H]1CN(c2cc(F)c(-c3ccc(C(N)=O)c(F)c3F)cc2NC(=O)c2c[nH]c(=O)cc2C(F)(F)F)C[C@H](C)N1C [Example 670, N-[5-(4-carbamoyl-2,3-difluorophenyl)-4-fluoro-2-[(3R,5S)-3,4,5-trimethylpiperazin-1-yl]phenyl]-6-oxo-4-(trifluoromethyl)-1H-pyridine-3-carboxamide] | 3.85 nM
CC(C)OC(=O)N1CCC=C(c2cc(NC(=O)c3c[nH]c(=O)cc3C(F)(F)F)c(N3C[C@@H](C)N(C)[C@@H](C)C3)cc2F)CC1 [Example 674, Propan-2-yl 4-[2-fluoro-5-[[6-oxo-4-(trifluoromethyl)-1H-pyridine-3-carbonyl]amino]-4-[(3R,5S)-3,4,5-trimethylpiperazin-1-yl]phenyl]-2,3,6,7-tetrahydroazepine-1-carboxylate] | 4.94 nM
